{"source": "patent US9421298B2", "about": "“Tissue adhesive based on nitrogen-modified aspartates” (Adhesys Medical GmbH, priority 2011, dated 2016)", "test_system": "L929 cells", "test": "Cytotoxicity in accordance with ISO 10993-5:2009 with L929 cells", "assay_type": "cell-based", "conditions": "prepolymer A cured with an equivalent amount of curing agent", "description": "The prepolymer A was cured with an equivalent amount of 2. The cytotoxicity was measured in accordance with ISO 10993-5:2009 with L929 cells. […] The system can therefore not be classed as being cytotoxic.", "data": [{"compound": "CCOC(=O)CC(NCCCCCCNCCCCCCNC(CC(=O)OCC)C(=O)OCC)C(=O)OCC", "note": "(stereo not shown) [Curing agent 2, triethyl 4-oxo-3-oxa-7,14,21-triazatricosane-6,22,23-tricarboxylate]", "values": [{"measurement": "Cytotoxicity (cell viability)", "value": "No reduction in cell viability"}]}]}
